Laboratory results: ChEMBL document CHEMBL1201862, “PubChem BioAssay data set” (2004)
Calls of active or inactive are those of the source.

How the values were obtained:
HEK293 [1] = assay: cells; format: functional, cell-based; conditions: Homo sapiens
[2] = molecular target: T1, Nuclear receptor subfamily 0 group B member 1 (Homo sapiens, UniProt P51843); assay: Luminescence-based cell-based high throughput dose response assay for inhibitors of the orphan nuclear receptor subfamily 0, group B, member 1 (DAX1; NR0B1). [Related pubchem assays (depositor defined):AID504766, AID504790]; format: functional
T1 sequence (P51843 whole entry): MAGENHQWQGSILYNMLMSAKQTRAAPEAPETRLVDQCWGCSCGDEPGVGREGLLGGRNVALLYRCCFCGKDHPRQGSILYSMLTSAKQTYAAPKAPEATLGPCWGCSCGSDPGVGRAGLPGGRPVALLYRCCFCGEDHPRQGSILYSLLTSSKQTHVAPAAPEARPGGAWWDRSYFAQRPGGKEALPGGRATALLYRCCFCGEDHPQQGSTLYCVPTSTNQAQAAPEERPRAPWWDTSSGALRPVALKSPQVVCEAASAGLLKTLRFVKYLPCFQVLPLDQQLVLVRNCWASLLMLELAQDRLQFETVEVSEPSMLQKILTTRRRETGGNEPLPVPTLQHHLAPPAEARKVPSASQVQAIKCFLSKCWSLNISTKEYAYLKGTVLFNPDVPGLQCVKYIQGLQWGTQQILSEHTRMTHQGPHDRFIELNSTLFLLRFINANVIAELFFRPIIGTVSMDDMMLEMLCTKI

[3] = molecular target: Ras and Rab interactor 1/Tyrosine-protein kinase ABL1 (Homo sapiens, UniProt P00519+Q13671); format: functional;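 also: biochemical TR-FRET dose-response test measuring inhibition of binding between Rin1 and Abl proteins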
Ras and Rab interactor 1/Tyrosine-protein kinase ABL1, sequence (P00519 whole entry): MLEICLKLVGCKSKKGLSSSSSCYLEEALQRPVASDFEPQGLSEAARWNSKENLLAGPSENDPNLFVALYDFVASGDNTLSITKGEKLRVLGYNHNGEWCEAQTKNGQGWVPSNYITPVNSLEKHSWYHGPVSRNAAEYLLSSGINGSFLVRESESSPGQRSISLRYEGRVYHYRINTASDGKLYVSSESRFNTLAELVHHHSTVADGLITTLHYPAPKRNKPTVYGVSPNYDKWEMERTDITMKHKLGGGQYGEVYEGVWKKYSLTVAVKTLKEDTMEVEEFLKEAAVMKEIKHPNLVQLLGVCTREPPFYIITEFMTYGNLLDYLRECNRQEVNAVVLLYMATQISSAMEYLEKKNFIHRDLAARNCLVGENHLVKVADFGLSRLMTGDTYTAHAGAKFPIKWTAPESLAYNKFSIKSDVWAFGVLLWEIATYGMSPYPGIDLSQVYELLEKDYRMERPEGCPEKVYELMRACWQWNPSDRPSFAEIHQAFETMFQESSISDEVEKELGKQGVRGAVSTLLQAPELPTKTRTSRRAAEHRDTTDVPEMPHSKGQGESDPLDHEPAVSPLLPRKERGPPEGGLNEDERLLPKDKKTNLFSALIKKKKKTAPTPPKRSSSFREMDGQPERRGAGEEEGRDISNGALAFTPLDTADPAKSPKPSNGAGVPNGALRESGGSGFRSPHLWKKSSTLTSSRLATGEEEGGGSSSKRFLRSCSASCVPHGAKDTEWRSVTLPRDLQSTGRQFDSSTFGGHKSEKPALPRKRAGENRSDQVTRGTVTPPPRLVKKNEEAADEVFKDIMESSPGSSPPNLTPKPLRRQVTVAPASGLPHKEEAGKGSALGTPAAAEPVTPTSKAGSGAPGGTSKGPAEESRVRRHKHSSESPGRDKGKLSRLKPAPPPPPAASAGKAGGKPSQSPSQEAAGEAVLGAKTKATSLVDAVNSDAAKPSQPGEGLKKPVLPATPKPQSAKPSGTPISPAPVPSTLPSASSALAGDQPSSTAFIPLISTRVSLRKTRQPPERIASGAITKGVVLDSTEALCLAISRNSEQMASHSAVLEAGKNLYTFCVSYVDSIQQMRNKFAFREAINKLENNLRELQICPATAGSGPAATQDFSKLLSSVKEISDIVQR
Ras and Rab interactor 1/Tyrosine-protein kinase ABL1, sequence (Q13671 whole entry): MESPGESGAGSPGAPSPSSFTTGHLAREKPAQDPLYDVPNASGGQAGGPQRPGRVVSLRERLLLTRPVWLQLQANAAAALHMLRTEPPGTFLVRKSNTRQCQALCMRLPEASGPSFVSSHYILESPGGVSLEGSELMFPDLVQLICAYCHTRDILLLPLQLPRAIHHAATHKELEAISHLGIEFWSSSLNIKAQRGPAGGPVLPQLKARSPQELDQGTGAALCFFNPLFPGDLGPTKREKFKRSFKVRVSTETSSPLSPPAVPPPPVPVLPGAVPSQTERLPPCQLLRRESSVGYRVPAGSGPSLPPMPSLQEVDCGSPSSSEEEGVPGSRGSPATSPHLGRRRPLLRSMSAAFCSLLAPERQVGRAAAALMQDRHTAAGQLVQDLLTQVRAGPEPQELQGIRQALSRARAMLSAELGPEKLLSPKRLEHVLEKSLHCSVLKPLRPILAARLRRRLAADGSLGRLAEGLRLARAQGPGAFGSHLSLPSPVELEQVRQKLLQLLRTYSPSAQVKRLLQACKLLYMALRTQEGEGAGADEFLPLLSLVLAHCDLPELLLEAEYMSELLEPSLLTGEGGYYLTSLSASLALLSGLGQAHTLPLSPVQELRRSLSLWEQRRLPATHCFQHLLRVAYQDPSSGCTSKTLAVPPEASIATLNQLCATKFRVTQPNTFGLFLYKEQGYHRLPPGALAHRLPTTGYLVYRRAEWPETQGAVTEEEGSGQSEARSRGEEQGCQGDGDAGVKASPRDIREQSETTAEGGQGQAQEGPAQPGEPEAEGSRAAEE

HeLa = assay: ATP-based viability loss in HeLa cells – cell-based, CellTiter-Glo luminescence, cherry-pick samples, cytotoxicity control for MITF activator project, dose response (AID 540259); format: functional; conditions: Homo sapiens
[4] = molecular target: T2, Heat shock factor protein 1 (Mus musculus, UniProt P38532); assay: enhancement of HSF1-driven luciferase signal – cell-based, NIH3T3, luminescence, dose retest, confirmation (AID 435004); format: functional;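 also: stress induced by proteasome inhibitor MG132 added 30 min after compound; luciferase reporter driven by HSF1 response element in NIH3T3 cells; actives raise luminescence as potentiators of the MG132 stress response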
T2 sequence (P38532 whole entry): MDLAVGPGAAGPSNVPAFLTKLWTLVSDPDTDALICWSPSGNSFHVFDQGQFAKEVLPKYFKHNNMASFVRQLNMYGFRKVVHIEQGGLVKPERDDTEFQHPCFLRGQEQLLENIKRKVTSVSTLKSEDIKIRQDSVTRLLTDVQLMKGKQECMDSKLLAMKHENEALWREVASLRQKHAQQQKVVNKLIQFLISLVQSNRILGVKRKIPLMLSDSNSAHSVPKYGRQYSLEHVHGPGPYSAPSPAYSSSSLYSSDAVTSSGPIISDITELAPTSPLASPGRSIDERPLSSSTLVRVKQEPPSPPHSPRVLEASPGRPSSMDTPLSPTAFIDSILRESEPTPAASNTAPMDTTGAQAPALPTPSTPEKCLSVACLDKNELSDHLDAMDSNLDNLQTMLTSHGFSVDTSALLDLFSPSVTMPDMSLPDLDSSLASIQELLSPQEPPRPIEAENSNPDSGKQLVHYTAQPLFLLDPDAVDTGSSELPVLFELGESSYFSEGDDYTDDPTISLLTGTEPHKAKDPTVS

Vero [5] = assay: cells; format: functional; conditions: Chlorocebus sabaeus
Vero [6] = assay: cells; format: functional, cell-based; conditions: Chlorocebus sabaeus
[7] = Luminescence Cell-Based Dose Retest to Confirm Inhibitors of Cancer Stem Cells. [Related pubchem assays (depositor defined):AID2717, AID2721]; format: functional; conditions: Homo sapiens
Protein Wnt-3a = Protein Wnt-3a (Mus musculus, UniProt P27467); assay: antagonism of Wnt3a pathway luciferase reporter – Wnt-LIGHT cells, luminescence, selectivity assay for Gli-SUFU antagonist project, dose response (AID 651570); format: functional; conditions: read-out: IC50_Mean;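 also: Wnt-LIGHT reporter cells stimulated with conditioned medium from Wnt3a-producing cells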
Protein Wnt-3a, sequence (P27467 whole entry): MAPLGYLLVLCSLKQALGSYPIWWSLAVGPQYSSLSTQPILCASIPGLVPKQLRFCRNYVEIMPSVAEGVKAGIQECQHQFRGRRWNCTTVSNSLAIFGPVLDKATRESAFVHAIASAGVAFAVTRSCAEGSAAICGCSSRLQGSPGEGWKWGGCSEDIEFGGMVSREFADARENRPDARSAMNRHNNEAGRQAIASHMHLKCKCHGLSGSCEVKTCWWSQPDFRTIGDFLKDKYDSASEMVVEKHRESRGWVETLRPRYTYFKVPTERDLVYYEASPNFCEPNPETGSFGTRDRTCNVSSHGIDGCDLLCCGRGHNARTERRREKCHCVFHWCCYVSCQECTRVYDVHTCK

[8] = molecular target: T3, COUP transcription factor 2 (Homo sapiens, UniProt P24468); assay: Luminescence-based cell-based high throughput dose response assay to identify inhibitors of COUP-TFII (NR2F2).; format: functional;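 also: HEK293 cells transiently cotransfected with COUP-TFII expression vector and reporter; luciferase reporter luminescence driven by COUP-TFII from the pX2-168 reporter plasmid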
T3 sequence (P24468 whole entry): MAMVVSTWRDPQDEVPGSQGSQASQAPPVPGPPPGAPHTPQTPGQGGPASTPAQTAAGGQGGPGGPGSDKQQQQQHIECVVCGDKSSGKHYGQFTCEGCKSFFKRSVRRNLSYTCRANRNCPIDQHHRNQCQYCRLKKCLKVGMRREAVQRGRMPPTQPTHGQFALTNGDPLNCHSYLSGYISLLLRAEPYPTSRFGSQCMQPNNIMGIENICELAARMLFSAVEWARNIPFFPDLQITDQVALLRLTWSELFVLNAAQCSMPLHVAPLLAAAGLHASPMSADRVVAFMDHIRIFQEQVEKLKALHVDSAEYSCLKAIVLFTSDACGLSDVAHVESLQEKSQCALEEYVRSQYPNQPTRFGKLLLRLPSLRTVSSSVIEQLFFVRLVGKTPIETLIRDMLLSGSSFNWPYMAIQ

Galanin receptor type 3 = Galanin receptor type 3 (Homo sapiens, UniProt O60755); assay: Fluorescence-based cell-based primary high throughput dose response assay to identify antagonists of the Galanin Receptor 3 (GalR3).; format: functional
Galanin receptor type 3, sequence (O60755 whole entry): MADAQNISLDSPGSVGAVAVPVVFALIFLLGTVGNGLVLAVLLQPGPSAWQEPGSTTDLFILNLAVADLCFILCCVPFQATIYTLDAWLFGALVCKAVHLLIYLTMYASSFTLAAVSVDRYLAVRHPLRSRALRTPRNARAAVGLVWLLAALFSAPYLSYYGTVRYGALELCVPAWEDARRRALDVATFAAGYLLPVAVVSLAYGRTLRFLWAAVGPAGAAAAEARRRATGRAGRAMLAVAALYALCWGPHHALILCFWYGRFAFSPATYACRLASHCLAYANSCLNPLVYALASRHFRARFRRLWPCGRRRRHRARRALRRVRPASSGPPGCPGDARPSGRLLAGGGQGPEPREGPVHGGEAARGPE

Tumor necrosis factor = Tumor necrosis factor (Homo sapiens, UniProt P01375); assay: analog potency on TNFa NF-kB signaling – cell-based, revised, SAR follow-up (AID 2337); format: functional
Tumor necrosis factor, sequence (P01375 whole entry): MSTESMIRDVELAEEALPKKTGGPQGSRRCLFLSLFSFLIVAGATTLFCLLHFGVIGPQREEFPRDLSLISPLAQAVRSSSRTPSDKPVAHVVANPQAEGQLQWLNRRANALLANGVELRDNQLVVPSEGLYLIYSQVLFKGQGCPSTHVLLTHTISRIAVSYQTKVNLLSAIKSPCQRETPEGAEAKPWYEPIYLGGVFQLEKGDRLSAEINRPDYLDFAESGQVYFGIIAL

HEK293 [9] = assay: cells; conditions: Homo sapiens
[10] = molecular target: T4, Nucleotide-binding oligomerization domain-containing protein 1 (Homo sapiens, UniProt Q9Y239); assay: blockers of NOD1 pathway activity – revised, SAR follow-up (AID 2333); format: functional
T4 sequence (Q9Y239 whole entry): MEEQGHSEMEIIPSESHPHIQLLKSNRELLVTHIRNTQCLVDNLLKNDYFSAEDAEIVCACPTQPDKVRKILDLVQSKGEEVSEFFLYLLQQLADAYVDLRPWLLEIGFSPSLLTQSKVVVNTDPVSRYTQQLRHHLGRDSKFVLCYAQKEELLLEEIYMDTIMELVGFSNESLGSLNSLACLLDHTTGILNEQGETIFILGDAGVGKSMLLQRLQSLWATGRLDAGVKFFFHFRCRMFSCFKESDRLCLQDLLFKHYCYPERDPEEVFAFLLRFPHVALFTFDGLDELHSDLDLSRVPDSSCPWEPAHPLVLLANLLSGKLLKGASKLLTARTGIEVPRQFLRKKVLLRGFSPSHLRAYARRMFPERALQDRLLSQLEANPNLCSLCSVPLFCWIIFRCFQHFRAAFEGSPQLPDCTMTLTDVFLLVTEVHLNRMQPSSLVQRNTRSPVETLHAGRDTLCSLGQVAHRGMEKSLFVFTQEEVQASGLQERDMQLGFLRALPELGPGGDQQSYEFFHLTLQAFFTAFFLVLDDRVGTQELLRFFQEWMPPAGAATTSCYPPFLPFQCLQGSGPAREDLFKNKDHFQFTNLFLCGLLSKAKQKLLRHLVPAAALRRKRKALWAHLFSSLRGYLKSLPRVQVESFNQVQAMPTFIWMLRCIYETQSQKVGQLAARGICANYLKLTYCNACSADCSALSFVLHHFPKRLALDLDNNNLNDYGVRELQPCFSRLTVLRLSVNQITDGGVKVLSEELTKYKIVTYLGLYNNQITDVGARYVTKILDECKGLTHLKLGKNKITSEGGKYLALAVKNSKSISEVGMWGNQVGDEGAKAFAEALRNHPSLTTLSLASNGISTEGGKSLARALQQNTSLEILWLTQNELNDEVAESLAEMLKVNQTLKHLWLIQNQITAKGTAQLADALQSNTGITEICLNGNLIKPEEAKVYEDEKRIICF

cells [11] = format: functional, cell-based; conditions: HEK-CNG
INS1 = assay: INS-1E survival protection against cytokine death – cell-based, luminescence, retest, dose response (AID 449756); format: functional; conditions: Rattus norvegicus;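 also: cell death triggered by IL-1 beta plus TNF-alpha plus IFN-gamma mixture; protective hits raise ATP signal compared with cytokine alone wells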
[12] = microbe, parasite or virus in culture; format: functional; conditions: Mycobacterium tuberculosis
[13] = molecular target: T5, Ubiquitin-conjugating enzyme E2 N (Homo sapiens, UniProt P61088); format: functional;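 also: Dose-response confirmation in a TR-FRET assay detecting UBC13-driven polyubiquitin chain formation, inhibition measured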
T5 sequence (P61088 whole entry): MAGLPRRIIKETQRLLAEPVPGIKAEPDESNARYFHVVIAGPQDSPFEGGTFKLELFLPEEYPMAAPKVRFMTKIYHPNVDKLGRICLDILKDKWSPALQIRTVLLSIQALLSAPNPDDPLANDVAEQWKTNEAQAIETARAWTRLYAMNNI

Melanocortin receptor 4 = Melanocortin receptor 4 (Homo sapiens, UniProt P32245); format: functional, cell-based;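 also: Cell-based assay with luminescence read-out, confirmatory dose-response testing for agonist activity of biased ligands at MC4R; human U2OS cells with tagged receptor and beta-arrestin; potency of agonists that increase receptor coupling to beta-arrestin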
Melanocortin receptor 4, sequence (P32245 whole entry): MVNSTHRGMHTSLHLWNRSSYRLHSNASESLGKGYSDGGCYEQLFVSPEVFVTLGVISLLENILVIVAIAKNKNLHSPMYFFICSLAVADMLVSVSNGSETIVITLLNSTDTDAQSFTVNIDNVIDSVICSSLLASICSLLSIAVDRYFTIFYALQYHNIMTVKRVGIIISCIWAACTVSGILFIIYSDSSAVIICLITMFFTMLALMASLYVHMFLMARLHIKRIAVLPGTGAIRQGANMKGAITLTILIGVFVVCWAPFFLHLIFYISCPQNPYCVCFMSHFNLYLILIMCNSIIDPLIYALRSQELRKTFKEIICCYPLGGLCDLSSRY

[14] = OVCAR8 cell viability loss – plate reader, dry powder samples, PAX8 project, dose response (AID 743197); format: functional, cell-based; conditions: OVCAR-8
Paired box protein Pax-8 = Paired box protein Pax-8 (Homo sapiens, UniProt Q06710); assay: PAX8 transcriptional activity inhibition in RMG-I – RMG-I cells, luciferase, cherry-pick, dose response (AID 687027); format: functional, cell-based;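 also: luciferase reporter driven by Pax8 target thyroperoxidase promoter measured by SteadyGlo luminescence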
Paired box protein Pax-8, sequence (Q06710 whole entry): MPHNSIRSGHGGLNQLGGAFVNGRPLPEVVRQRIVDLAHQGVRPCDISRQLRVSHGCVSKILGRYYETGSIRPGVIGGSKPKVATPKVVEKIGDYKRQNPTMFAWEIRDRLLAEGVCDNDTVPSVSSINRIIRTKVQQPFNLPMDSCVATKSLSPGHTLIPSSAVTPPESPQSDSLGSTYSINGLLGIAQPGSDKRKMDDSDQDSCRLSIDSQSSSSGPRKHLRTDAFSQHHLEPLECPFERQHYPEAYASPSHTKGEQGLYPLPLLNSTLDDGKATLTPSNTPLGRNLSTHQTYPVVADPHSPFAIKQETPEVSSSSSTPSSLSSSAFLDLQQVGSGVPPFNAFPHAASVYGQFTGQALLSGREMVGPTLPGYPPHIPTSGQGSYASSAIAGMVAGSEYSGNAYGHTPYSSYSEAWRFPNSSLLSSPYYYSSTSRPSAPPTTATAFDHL

[15] = IGROV1 cell killing – plate reader, dry powder samples, PAX8 inhibitor project, dose response (AID 743043); format: functional, cell-based; conditions: IGROV-1
[16] = OVCAR-3 cell viability loss – plate reader, dry powder samples, PAX8 inhibitor project, dose response (AID 743044); format: functional, cell-based
[17] = molecular target: T6, Oxysterols receptor LXR-beta (Homo sapiens, UniProt P55055); format: functional, cell-based;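 also: agonist activity at LXR measured by a cell-based luminescence readout across a dose range, run as a counterscreen for daf-12 agonists; HEK293 cells with Gal4-LXR fusion and GAL4-driven luciferase reporter; potency for activation of Gal4-LXR reporter so compounds are agonists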
T6 sequence (P55055 whole entry): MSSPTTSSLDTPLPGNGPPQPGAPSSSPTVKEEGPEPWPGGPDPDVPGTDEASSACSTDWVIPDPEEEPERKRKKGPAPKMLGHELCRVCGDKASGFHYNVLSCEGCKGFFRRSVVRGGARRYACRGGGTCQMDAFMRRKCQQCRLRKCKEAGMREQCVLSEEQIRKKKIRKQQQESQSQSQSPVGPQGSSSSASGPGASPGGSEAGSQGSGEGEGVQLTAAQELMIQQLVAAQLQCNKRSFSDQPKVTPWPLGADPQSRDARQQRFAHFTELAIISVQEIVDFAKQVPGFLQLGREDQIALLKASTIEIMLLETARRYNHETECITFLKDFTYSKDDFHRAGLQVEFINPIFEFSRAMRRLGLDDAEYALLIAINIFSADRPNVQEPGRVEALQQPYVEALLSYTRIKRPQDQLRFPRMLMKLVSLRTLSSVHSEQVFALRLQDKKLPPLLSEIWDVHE

[18] = T. cruzi growth inhibition in host cells, dose response, cell-based, plate reader, dry powder, set 2 (AID 652275); format: functional
cells [19] = format: functional, cell-based
cells [20] = format: functional, cell-based; remark: listed apart in the source

CCn1cc(/C=C/C(=O)c2ccc(O)cc2)c(C)n1
IC50 (HEK293 [1]): > 67.5 µM (inactive) | IC50 [2]: > 67.5 µM (inactive)

COc1ccccc1OCc1ccc(C(=O)N2CCN(C(=O)c3ccco3)CC2)cc1
IC50 [3]: 36 µM (inactive)

CC1CCN(C(=O)c2cc(-c3ccccc3O)on2)CC1
AC50 (HeLa): 129 µM (active)

COc1ccc(/C=C/C(=O)c2ccc(NS(=O)(=O)c3ccc(C)cc3)cc2)cc1O
EC50 [4]: 32.2 µM (active) | CC50 (Vero [5]): 17.9 µM (active) | IC50 (Vero [6]): > 25 µM (active) | AC50 [7]: 2.69 µM (active)

COC(=O)c1ccc(COC(=O)C23CC4CC(CC(O)(C4)C2)C3)o1
IC50 [3]: 17.4 µM (inactive)

CCS(=O)(=O)N1CCN(c2nc(-c3ccccc3)cs2)CC1
AC50 (HeLa): 61.6 µM (active)

O=C(Nc1nc(-c2cccs2)cs1)c1cccc(S(=O)(=O)N2CCCCCC2)c1
IC50 (Protein Wnt-3a): 19.2 µM (active)

Cn1nccc1C(=O)NC1CCCc2c1cnn2-c1ccc(C(C)(C)C)cc1 (stereo not drawn)
IC50 [8]: 1.25 µM (active) | IC50 (Galanin receptor type 3): 0.143 µM (active) | IC50 (Tumor necrosis factor): 0.2 µM (active) | IC50 (HEK293 [9]): 16.4 µM (active) | IC50 [10]: 0.232 µM (active) | EC50 (cells [11]): > 29.9 µM (inactive) | AC50 (INS1): 1.62 µM (active)

COc1ccc(C(=O)Nc2nncs2)cc1S(=O)(=O)N1CC(c2ccccc2)CC1=O (stereo not drawn)
IC50 (HEK293 [1]): > 67.5 µM (inactive) | IC50 [2]: > 67.5 µM (inactive)

CN(C)CCOc1ccc(-c2c(-c3ccsc3)sc3ccccc23)cc1
CC50 [12]: 11.3 µM (active) | AC50 [7]: 3.47 µM (active) | IC50 [13]: > 20 µM (inactive) | EC50 (Melanocortin receptor 4): > 89.2 µM (inactive)

CCN(CC)C(=O)OCc1c(-c2ccccc2)ncc2ccccc12
AC50 (HeLa): 110 µM (active)

CC(=O)Nc1cc(-c2ccc(F)cc2)cn2c(-c3ccc(F)c(Cl)c3)cnc12
EC50 (Melanocortin receptor 4): > 89.2 µM (inactive)

C[C@@H]1CN([C@H](C)CO)C(=O)c2cc(NC(=O)Nc3ccccc3)ccc2O[C@@H](C)CCCCO[C@@H]1CN(C)Cc1ccc(C(F)(F)F)cc1
AC50 [14]: 61.8 µM (active) | AC50 (Paired box protein Pax-8): 6.35 µM (active) | AC50 [15]: 51.4 µM (active) | AC50 [16]: 28.6 µM (active)

N#C/C(=N\Nc1ccc(Cl)cc1)C(=N)N1CCCCCC1
IC50 (HEK293 [1]): > 0.833 µM (active) | IC50 [2]: > 67.5 µM (inactive) | EC50 [17]: > 67.5 µM (inactive)

CN(C)CC#Cc1cccc(-c2nc(C(=O)NCCCN3CCOCC3)cc3c2[C@H](CCO)N([S+]([O-])C(C)(C)C)C3)c1 (stereo partly drawn)
AC50 [18]: 1.24 µM (active)

CC(C)N1C[C@H](C)[C@@H](CN(C)Cc2ccc(Cl)cc2)Oc2c(cccc2-c2nnn(-c3ccncc3)n2)C1=O
AC50 [18]: 0.12 µM (active)

Oc1ccc(Cl)cc1/C=N/CCc1ccccc1
IC50 (cells [19]): 9.79 µM (active) | EC50 (cells [20]): > 29.9 µM (inactive)

CCCn1c2c(c(=N)c3c1CCC3)CCCC2
IC50 (Protein Wnt-3a): 37 µM (inactive)
